Like-named read-outs stand apart in the source and are kept apart here. Non-standard residues stand in square brackets, D forms with d. Residues, ends and D or L forms follow the SMILES beside them. *: point of attachment. Sta = CC(C)C[C@H](N)[C@@H](O)CC(=O)O; Isovaleryl = CC(C)CC(=O)*
Target: T1, Methanococcus jannaschii selecase, wild type, SEQ ID No: 1 (Methanocaldococcus jannaschii, UniProt Q58610)
T1 sequence (Q58610 1-110): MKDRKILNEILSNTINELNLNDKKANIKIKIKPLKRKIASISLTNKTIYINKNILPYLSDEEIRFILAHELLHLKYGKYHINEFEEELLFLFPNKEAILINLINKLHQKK
Assay: Inhibition assay with fluorogenic substrate Abz-E-L-A-Y-F-Y-P-E-K(dnp)
Assay type: biochemical
Conditions: for activity at 100 µM: inhibitor 0.1 mM
Protocol: Proteolytic activities were assayed at 37°C in buffer E (50 mM MES, 150 mM NaCl, pH 5.5), buffer F (50 mM HEPES, 150 mM NaCl, pH 7.5) or buffer G (50 mM CHES, 150 mM NaCl, pH 9.5) at a final protein concentration of 50 µg/ml unless otherwise stated.
For inhibition assays, selecase (at 2 µM in buffer F) was incubated for 30 min with different classes of protease inhibitors and the remaining proteolytic activity was then measured using the fluorogenic substrate Ab[…](dnp) at 37°C. Metal substitution assays were performed by removing the pre-existing metal upon purification through dialysis against 10 mM and 1 mM 1,10-phenanthroline and subsequent dialysis against 1 mM and 10 µM chloride or sulfate salt of a set of divalent metals, similarly as described above to obtain fully active protein. Metals tested were zinc, cobalt, magnesium, manganese, calcium, cadmium, copper, and nickel.

[1] = inhibitor 1 mM, selecase 2 µM in buffer F (50 mM HEPES, 150 mM NaCl, pH 7.5), incubated 30 min with inhibitor, remaining activity at 37°C, no inhibitor = 100, mean of three, SD within ±5
[2] = selecase 2 µM in buffer F (50 mM HEPES, 150 mM NaCl, pH 7.5), incubated 30 min with inhibitor, remaining activity at 37°C, no inhibitor = 100, mean of three, SD within ±5, read-out: Relative activity (%)
[3] = inhibitor 1 mM, selecase 2 µM in buffer F (50 mM HEPES, 150 mM NaCl, pH 7.5), incubated 30 min with inhibitor, remaining activity at 37°C, no inhibitor = 100, mean of three, SD within ±5, read-out: Relative activity (%)

SMILES: O=C(O)CN(CCN(CC(=O)O)CC(=O)O)CC(=O)O [EDTA]
- activity at 1000 µM (pH 7.5, read-out: Relative activity (%)): 0%

SMILES: NCCc1ccc(S(=O)(=O)F)cc1 [Pefabloc]
- Relative activity (%) [1]: 78%

SMILES: O=S(=O)(F)Cc1ccccc1 [PMSF]
- Relative activity (%) [1]: 82%

SMILES: CC(C)CC(=O)N[C@H](C(=O)N[C@H](C(=O)N[C@@H](CC(C)C)[C@@H](O)CC(=O)N[C@@H](C)C(=O)N[C@@H](CC(C)C)[C@@H](O)CC(=O)O)C(C)C)C(C)C [Pepstatin A] (Isovaleryl-VV[Sta]A[Sta]-OH)
- activity at 100 µM [2]: 75%

SMILES: CC(C)C[C@H](NC(=O)[C@H]1O[C@@H]1C(=O)O)C(=O)NCCCCNC(=N)N [E-64]
- activity at 100 µM [2]: 98%

SMILES: NC(=O)CI [lodoacetamide]
- activity at 1000 µM [3]: 79%

SMILES: N=C(N)c1ccccc1 [Benzamidine]
- activity at 1000 µM [3]: 66%

— EP2845863A1, “Mathanococcus jannaschii protease and its use” (Consejo Superior de Investigaciones Cientificas (CSIC), priority 2013, dated 2015)
